# Assay results reported in patent US8268848B2, “Cyclopropane compound” (Eisai R&D Management Co., Ltd., priority 2010, dated 2012).
# pIC50: −log10 of the molar value. Like-named read-outs stand apart in the source and are kept apart here.
# Assays:
# [1] = molecular target: T1, OX1 (Homo sapiens, UniProt O43613); test: Measurement of orexin receptor-binding ability ([125I]-OX-A, cell membranes, OX1); parameters: expressed in transfected cells; host or cells: CHO cells (membrane preparation)
# T1 sequence (O43613 1-425): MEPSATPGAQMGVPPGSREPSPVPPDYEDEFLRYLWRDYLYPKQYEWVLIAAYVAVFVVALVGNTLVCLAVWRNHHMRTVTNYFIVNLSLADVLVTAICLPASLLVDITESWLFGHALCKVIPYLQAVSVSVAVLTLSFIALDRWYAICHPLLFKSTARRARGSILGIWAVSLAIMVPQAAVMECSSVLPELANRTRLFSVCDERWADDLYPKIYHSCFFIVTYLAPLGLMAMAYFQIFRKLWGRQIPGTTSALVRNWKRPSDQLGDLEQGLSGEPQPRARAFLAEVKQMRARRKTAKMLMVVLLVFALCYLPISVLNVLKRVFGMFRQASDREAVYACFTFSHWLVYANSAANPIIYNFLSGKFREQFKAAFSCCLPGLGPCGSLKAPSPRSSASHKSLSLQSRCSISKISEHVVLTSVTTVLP
# Procedure: 1. Measurement of Orexin Receptor-Binding Ability
# The assay was carried out using a 96-well Wheat Germ Agglutinin Flash Plate (PerkinElmer). The volume in a single assay well was 100 ul, and the composition of the reaction solution was as follows:
# 25 mM HEPES (pH 7.5), 1 mM CaCl2, 4.5 mM MgCl2, 0.5% BSA (bovine serum albumin), 0.1% sodium azide, 0.05% Tween-20, and 0.2% DMSO.
# Cell membranes were prepared from recombinant CHO cells that expressed OX2 or OX1. The cell membranes were used in an amount of 5 μg protein/assay. […] Finally, the radioactivity of each well was measured using a scintillation counter (TopCount, PerkinElmer).
# [2] = molecular target: T2, OX2 (Homo sapiens, UniProt O43614); test: Measurement of orexin receptor-binding ability ([125I]-OX-A, cell membranes, OX2); parameters: expressed in transfected cells; host or cells: CHO cells (membrane preparation); settings: membranes of recombinant CHO cells expressing OX2, 0.2 nM [125I]-OX-A; for IC50: OX2 (IC50) nM; for pIC50: read-out: OX2 (IC50)
# T2 sequence (O43614 1-444): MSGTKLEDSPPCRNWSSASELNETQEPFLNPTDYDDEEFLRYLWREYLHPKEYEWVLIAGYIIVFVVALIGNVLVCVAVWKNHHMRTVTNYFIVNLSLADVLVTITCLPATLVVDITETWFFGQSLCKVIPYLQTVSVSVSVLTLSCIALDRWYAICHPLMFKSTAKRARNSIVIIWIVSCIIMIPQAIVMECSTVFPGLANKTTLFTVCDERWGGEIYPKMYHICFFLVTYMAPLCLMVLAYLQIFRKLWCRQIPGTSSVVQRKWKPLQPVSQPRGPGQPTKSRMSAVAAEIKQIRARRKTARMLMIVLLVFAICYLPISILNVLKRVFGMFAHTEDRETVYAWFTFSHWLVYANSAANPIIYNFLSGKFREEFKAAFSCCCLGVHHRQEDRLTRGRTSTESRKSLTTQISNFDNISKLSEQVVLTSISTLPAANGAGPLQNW
# [3] = membranes of recombinant CHO cells expressing OX1, 0.2 nM [125I]-OX-A, read-out: OX1 (IC50)
Structure (SMILES),pIC50 [1],IC50 [2] [nM],"pIC50 [1, 3]",pIC50 [2]
Cc1ncc(OC[C@@]2(c3cccc(F)c3)C[C@H]2C(=O)Nc2ccc(Br)cn2)c(C)n1 [Example 279],7.62,3.2,–,–
"COCc1nc(C)ncc1OC[C@@]1(c2cc(F)cc(F)c2)C[C@H]1C(=O)Nc1ccc(F)cc1 [Example 219, (1R,2S)-2-(3,5-difluorophenyl)-N-(4-fluorophenyl)-2-{[(4-methoxymethyl-2-methylpyrimidin-5-yl)oxy]methyl}cyclopropanecarboxamide]",–,–,8.00,8.52
"CCc1nc(C)ncc1OC[C@@]1(c2cccc(F)c2)C[C@H]1C(=O)Nc1cc(C)c(F)cn1 [Example 244, (1R,2S)-2-{[(4-ethyl-2-methylpyrimidin-5-yl)oxy]methyl}-N-(5-fluoro-4-methylpyridin-2-yl)-2-(3-fluorophenyl)cyclopropanecarboxamide]",–,–,8.52,8.28
Cc1cc(NC(=O)[C@@H]2C[C@@]2(COc2cnc(C)nc2C)c2ccccc2)ccn1 [Example 28],–,–,5.77,7.00
"Cc1nc(C)c(OC[C@@]2(c3cccc(F)c3)C[C@H]2C(=O)Nc2ccc(F)cn2)c(=O)[nH]1 [Example 326, (1R,2S)-2-{[(2,4-dimethyl-6-oxo-1,6-dihydropyrimidin-5-yl)oxy]methyl}-2-(3-fluorophenyl)-N-(5-fluoropyridin-2-yl)cyclopropanecarboxamide]",6.91,6,–,–
COc1ccccc1C1(COc2cnc(C)nc2C)CC1C(=O)Nc1ccc(F)cn1 (stereo not shown) [Example 125],5.98,84,–,–
COc1cncc(NC(=O)[C@@H]2C[C@@]2(COc2cnc(C)nc2C)c2cccc(F)c2)c1 [Example 89],6.79,14,–,–
Cc1ncc(OC[C@@]2(c3cccs3)C[C@H]2C(=O)Nc2ccc(Cl)cn2)c(C)n1 [Example 267],–,–,6.93,7.19
COc1cc(NC(=O)[C@@H]2C[C@@]2(COc2cnc(C)nc2C)c2ccccc2)ccn1 [Example 72],–,–,6.69,7.51
"COCc1nc(C)ncc1OC[C@@]1(c2cc(F)cc(OC)c2)C[C@H]1C(=O)Nc1cccc(F)c1 [Example 236, (1R,2S)-2-(3-fluoro-5-methoxyphenyl)-N-(3-fluorophenyl)-2-{[(4-methoxymethyl-2-methylpyrimidin-5-yl)oxy]methyl}cyclopropanecarboxamide]",7.68,5,–,–
Cc1ncc(OCC2(c3cccc(F)c3)CC2C(=O)Nc2cccnc2)c(C)n1 (stereo not shown) [Example 99],6.19,58,–,–
"COc1cccc([C@]2(COc3cnc(C)nc3C)C[C@H]2C(=O)Nc2ccc(F)c(F)c2)c1 [Example 190, (1R,2S)-N-(3,4-difluorophenyl)-2-{[(2,4-dimethylpyrimidin-5-yl)oxy]methyl}-2-(3-methoxyphenyl)cyclopropanecarboxamide]",–,–,7.96,8.30
Cc1ncc(OC[C@@]2(c3ccccc3)C[C@H]2C(=O)Nc2cccc(CO)c2)c(C)n1 [Example 17],–,–,6.53,7.42
"Cc1ncc(OC[C@@]2(c3ccc(F)c(F)c3)C[C@H]2C(=O)Nc2ccc(F)cc2)c(C)n1 [Example 165, (1R,2S)-2-(3,4-difluorophenyl)-2-{[(2,4-dimethylpyrimidin-5-yl)oxy]methyl}-N-(4-fluorophenyl)cyclopropanecarboxamide]",–,–,7.54,8.15
Cc1ccc(NC(=O)[C@@H]2C[C@@]2(COc2cnc(C)nc2C)c2ccccc2)nc1 [Example 69],6.90,34,–,–
Cc1ncc(OC[C@@]2(c3cccc(F)c3)C[C@H]2C(=O)Nc2ccccn2)c(C)n1 [Example 87],7.37,10,–,–
"Cc1ncc(OC[C@@]2(c3cc(F)cc(F)c3)C[C@H]2c2nc3ncc(F)cc3[nH]2)c(C)n1 [Example 306, 2-{(1R,2S)-2-(3,5-difluorophenyl)-2-{[(2,4-dimethylpyrimidin-5-yl)oxy]methyl}cyclopropyl}-6-fluoro-1H-imidazo[4,5-b]pyridine]",–,–,7.82,8.10
COCc1nc(C)ncc1OC[C@@]1(c2cccc(F)c2)C[C@H]1C(=O)Nc1ccc(C#N)cn1 [Example 200],7.17,12,–,–

Structure (SMILES),pIC50 [1],IC50 [2] [nM],"pIC50 [1, 3]",pIC50 [2]
COc1ccc(C2(COc3cnc(C)nc3C)CC2C(=O)Nc2ccc(F)cn2)cc1 (stereo not shown) [Example 181],6.93,100,–,–
CC(=O)c1cccc(NC(=O)[C@@H]2C[C@@]2(COc2cnc(C)nc2C)c2ccccc2)c1 [Example 37],7.39,8,–,–
Cc1ncc(OC[C@@]2(c3ccccc3)C[C@H]2C(=O)Nc2ccnc(F)c2)c(C)n1 [Example 18],–,–,6.46,7.48
Cc1ncc(OCC2(c3cccc(Br)c3)CC2C(=O)Nc2ccc(F)cn2)c(C)n1 (stereo not shown) [Example 271],7.74,5,–,–
"Cc1ncc(OC[C@@]2(c3cccc(F)c3)C[C@H]2C(=O)Nc2ccc(F)c(F)c2)c(C)n1 [Example 84, (1R,2S)-N-(3,4-difluorophenyl)-2-{[(2,4-dimethylpyrimidin-5-yl)oxy]methyl}-2-(3-fluorophenyl)cyclopropanecarboxamide]",8.22,3,–,–
"Cc1ncc(OCC2(c3cccnc3)CC2C(=O)Nc2ccc(Cl)cn2)c(C)n1 (stereo not shown) [Example 260, N-(5-chloropyridin-2-yl)-2-{[(2,4-dimethylpyrimidin-5-yl)oxy]methyl}-2-pyridin-3-ylcyclopropanecarboxamide]",–,–,< 5.70,7.15
"CCc1nc(C)ncc1OC[C@@]1(c2ccc(F)cc2)C[C@H]1C(=O)Nc1ccc(F)cn1 [Example 246, (1R,2S)-2-{[(4-ethyl-2-methylpyrimidin-5-yl)oxy]methyl}-2-(4-fluorophenyl)-N-(5-fluoropyridin-2-yl)cyclopropanecarboxamide]",7.80,4,–,–
"Cc1ncc(OC[C@@]2(c3cc(F)cc(F)c3)C[C@H]2C(=O)Nc2ccc(F)cn2)c(C)n1 [Example 133, (1R,2S)-2-(3,5-difluorophenyl)-2-{[(2,4-dimethylpyrimidin-5-yl)oxy]methyl}-N-(5-fluoropyridin-2-yl)cyclopropanecarboxamide]",8.15,3,–,–
COCc1nc(C)ncc1OC[C@@]1(c2ccc(F)c(F)c2)C[C@H]1C(=O)Nc1ccc(F)cc1 [Example 213],–,–,7.85,7.96
Cc1ncc(OCC2(c3ccc(F)cc3)CC2C(=O)Nc2ccc(Cl)cn2)c(C)n1 (stereo not shown) [Example 102],7.30,23,–,–
"CCc1nc(C)ncc1OC[C@@]1(c2ccccc2)C[C@H]1C(=O)Nc1ccccn1 [Example 118, (1R,2S)-2-{[(4-ethyl-2-methylpyrimidin-5-yl)oxy]methyl}-2-phenyl-N-(pyridin-2-yl)cyclopropanecarboxamide]",–,–,6.47,7.62
Cc1ncc(N(C)C[C@@]2(c3cccc(F)c3)C[C@H]2C(=O)Nc2ccc(F)c(F)c2)c(C)n1 [Example 296],–,–,< 6.70,8.10
Cc1ncc(OC[C@@]2(c3cccc(F)c3)C[C@H]2C(=O)Nc2ccc(F)cn2)c(C)[n+]1[O-] [Example 285],7.11,16,–,–
Cc1ccc(C2(COc3cnc(C)nc3C)CC2C(=O)Nc2ccc(F)cn2)cc1 (stereo not shown) [Example 174],7.48,55,–,–
"Cc1ncc(OC[C@@]2(c3ccccc3)C[C@H]2C(=O)Nc2cccc(Cl)c2)c(C)n1 [Example 24, (1R,2S)-N-(3-chlorophenyl)-2-{[(2,4-dimethylpyrimidin-5-yl)oxy]methyl}-2-phenylcyclopropanecarboxamide]",–,–,7.55,8.15
Cc1cccc(C2(COc3cnc(C)nc3C)CC2C(=O)Nc2ccc(F)cn2)c1 (stereo not shown) [Example 176],6.86,26,–,–
"Cc1ncc(OC[C@@]2(c3ccccc3)C[C@H]2C(=O)Nc2cc(F)nc(F)c2)c(C)n1 [Example 76-2, (1R,2S)-N-(2,6-difluoropyridin-4-yl)-2-{[(2,4-dimethylpyrimidin-5-yl)oxy]methyl}-2-phenylcyclopropanecarboxamide]",–,–,6.04,7.33
